In ChEMBL document CHEMBL1201862, “PubChem BioAssay data set” (2004):
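Five concentrations, 48 hours, 96-well plates. Here, GI50 denotes the concentration required for 50% inhibition of growth.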 Calls of active or inactive are those of the source. Cut-off read from the data, not from the text of the source: active = GI50 up to about 1.1 µM and inactive = higher.

What was measured:
Assay in all cases: NCI-60 cell line screen, 48 h
SN12C = test system: SN12C
NCI/ADR-RES = test system: NCI/ADR-RES
TK-10 = test system: TK-10
DU-145 = test system: DU-145
HOP-62 = test system: HOP-62
NCI-H23 = test system: NCI-H23
OVCAR-5 = test system: OVCAR-5
SK-OV-3 = test system: SK-OV-3
UACC-62 = test system: UACC-62
SW-620 = test system: SW-620
OVCAR-3 = test system: OVCAR-3
MOLT-4 = test system: MOLT-4
OVCAR-8 = test system: OVCAR-8
RXF 393 = test system: RXF 393
MDA-MB-231 = test system: MDA-MB-231
SK-MEL-5 = test system: SK-MEL-5
MDA-MB-435 = test system: MDA-MB-435
HOP-92 = test system: HOP-92
NCI-H522 = test system: NCI-H522
HOP-18 = test system: HOP-18

SMILES: NS(=O)(=O)c1nnc(NC(=S)NC(=O)Nc2ccc(Cl)c(Cl)c2)s1
- GI50 (SN12C): 26.7 µM (inactive)
- GI50 (NCI/ADR-RES): 25.4 µM (inactive)
- GI50 (TK-10): 34.9 µM (inactive)
- GI50 (DU-145): 20.8 µM (inactive)
- GI50 (HOP-62): 22.8 µM (inactive)
- GI50 (NCI-H23): 18.1 µM (inactive)
- GI50 (OVCAR-5): 25.1 µM (inactive)
- GI50 (SK-OV-3): 20.7 µM (inactive)
- GI50 (UACC-62): 17.5 µM (inactive)
- GI50 (SW-620): 22.5 µM (inactive)
- GI50 (OVCAR-3): 20.8 µM (inactive)
- GI50 (MOLT-4): 29 µM (inactive)
- GI50 (OVCAR-8): 22.1 µM (inactive)
- GI50 (RXF 393): 19.1 µM (inactive)
- GI50 (MDA-MB-231): 30.4 µM (inactive)
- GI50 (SK-MEL-5): 21.2 µM (inactive)
- GI50 (MDA-MB-435): 19.4 µM (inactive)
- GI50 (HOP-92): 13.5 µM (inactive)
- GI50 (NCI-H522): 14.8 µM (inactive)

SMILES: CCCCSC1=N/C(=C\c2ccc(N(C)C)cc2)C(=O)N1
- GI50 (SN12C): 16.3 µM (inactive)
- GI50 (NCI/ADR-RES): 82.6 µM (inactive)
- GI50 (TK-10): > 100 µM (inactive)
- GI50 (DU-145): 60.1 µM (inactive)
- GI50 (HOP-62): 46.2 µM (inactive)
- GI50 (NCI-H23): 67.9 µM (inactive)
- GI50 (OVCAR-5): 24.4 µM (inactive)
- GI50 (SK-OV-3): 41.2 µM (inactive)
- GI50 (UACC-62): 20.7 µM (inactive)
- GI50 (SW-620): 48.2 µM (inactive)
- GI50 (OVCAR-3): 27 µM (inactive)
- GI50 (MOLT-4): 57.5 µM (inactive)
- GI50 (OVCAR-8): 54.1 µM (inactive)
- GI50 (RXF 393): 30 µM (inactive)
- GI50 (MDA-MB-231): 24 µM (inactive)
- GI50 (SK-MEL-5): 50.5 µM (inactive)
- GI50 (MDA-MB-435): 28.6 µM (inactive)
- GI50 (HOP-92): 27.3 µM (inactive)
- GI50 (NCI-H522): 21.7 µM (inactive)

SMILES: COc1cc(/C=C2\C(=O)N(c3cccc([N+](=O)[O-])c3)C(c3ccccc3)S2(=O)=O)cc(OC)c1OC (stereo not drawn)
- GI50 (SN12C): > 100 µM (inactive)
- GI50 (NCI/ADR-RES): > 100 µM (inactive)
- GI50 (TK-10): > 100 µM (inactive)
- GI50 (DU-145): > 100 µM (inactive)
- GI50 (HOP-62): > 100 µM (inactive)
- GI50 (NCI-H23): > 100 µM (inactive)
- GI50 (OVCAR-5): > 100 µM (inactive)
- GI50 (SK-OV-3): > 100 µM (inactive)
- GI50 (UACC-62): 80.7 µM (inactive)
- GI50 (SW-620): 94.4 µM (inactive)
- GI50 (OVCAR-3): > 100 µM (inactive)
- GI50 (MOLT-4): 74 µM (inactive)
- GI50 (OVCAR-8): > 100 µM (inactive)
- GI50 (RXF 393): > 100 µM (inactive)
- GI50 (MDA-MB-231): > 100 µM (inactive)
- GI50 (SK-MEL-5): > 100 µM (inactive)
- GI50 (MDA-MB-435): 32.3 µM (inactive)
- GI50 (HOP-92): > 100 µM (inactive)
- GI50 (NCI-H522): > 100 µM (inactive)

SMILES: O=C(NCCc1ccccc1)[C@H]1CCCC[C@@H]1CCO
- GI50 (SN12C): > 100 µM (inactive)
- GI50 (NCI/ADR-RES): > 100 µM (inactive)
- GI50 (TK-10): > 100 µM (inactive)
- GI50 (DU-145): > 100 µM (inactive)
- GI50 (HOP-62): > 100 µM (inactive)
- GI50 (NCI-H23): > 100 µM (inactive)
- GI50 (OVCAR-5): > 100 µM (inactive)
- GI50 (SK-OV-3): > 100 µM (inactive)
- GI50 (UACC-62): > 100 µM (inactive)
- GI50 (SW-620): > 100 µM (inactive)
- GI50 (OVCAR-3): > 100 µM (inactive)
- GI50 (MOLT-4): > 100 µM (inactive)
- GI50 (OVCAR-8): > 100 µM (inactive)
- GI50 (RXF 393): > 100 µM (inactive)
- GI50 (MDA-MB-231): > 100 µM (inactive)
- GI50 (SK-MEL-5): > 100 µM (inactive)
- GI50 (MDA-MB-435): > 100 µM (inactive)
- GI50 (HOP-92): > 100 µM (inactive)
- GI50 (NCI-H522): > 100 µM (inactive)

SMILES: COC(=O)c1ccccc1C1CN=NC12Cc1c(C)c3c(c(C)c1C2=O)CCC3 (stereo not drawn)
- GI50 (SN12C): > 100 µM (inactive)
- GI50 (NCI/ADR-RES): > 100 µM (inactive)
- GI50 (TK-10): 2.48 µM (inactive)
- GI50 (DU-145): > 100 µM (inactive)
- GI50 (HOP-62): 77.4 µM (inactive)
- GI50 (NCI-H23): 54.6 µM (inactive)
- GI50 (OVCAR-5): > 100 µM (inactive)
- GI50 (SK-OV-3): > 100 µM (inactive)
- GI50 (UACC-62): > 100 µM (inactive)
- GI50 (SW-620): > 100 µM (inactive)
- GI50 (OVCAR-3): > 100 µM (inactive)
- GI50 (MOLT-4): > 100 µM (inactive)
- GI50 (OVCAR-8): > 100 µM (inactive)
- GI50 (RXF 393): > 100 µM (inactive)
- GI50 (MDA-MB-231): 23.6 µM (inactive)
- GI50 (SK-MEL-5): > 100 µM (inactive)
- GI50 (MDA-MB-435): > 100 µM (inactive)
- GI50 (HOP-92): 22.5 µM (inactive)
- GI50 (NCI-H522): 33.7 µM (inactive)

SMILES: Cc1ccccc1OC(C)C(=O)NN1C(=O)CSC1c1ccc(Cl)cc1 (stereo not drawn)
- GI50 (SN12C): 17.5 µM (inactive)
- GI50 (NCI/ADR-RES): 54.3 µM (inactive)
- GI50 (TK-10): 47.4 µM (inactive)
- GI50 (DU-145): 38.2 µM (inactive)
- GI50 (HOP-62): 21 µM (inactive)
- GI50 (NCI-H23): 56.1 µM (inactive)
- GI50 (OVCAR-5): 54.6 µM (inactive)
- GI50 (SK-OV-3): 47.1 µM (inactive)
- GI50 (UACC-62): 58.9 µM (inactive)
- GI50 (SW-620): 32.1 µM (inactive)
- GI50 (OVCAR-3): 31 µM (inactive)
- GI50 (MOLT-4): 22.1 µM (inactive)
- GI50 (OVCAR-8): 52 µM (inactive)
- GI50 (RXF 393): 38.5 µM (inactive)
- GI50 (MDA-MB-231): 26.2 µM (inactive)
- GI50 (SK-MEL-5): 49.9 µM (inactive)
- GI50 (MDA-MB-435): 57.9 µM (inactive)
- GI50 (HOP-92): 31 µM (inactive)
- GI50 (NCI-H522): 4.16 µM (inactive)

SMILES: CCOC(=O)c1cc([N+](=O)[O-])c(Sc2ncnc3nc[nH]c23)c([N+](=O)[O-])c1
- GI50 (SN12C): 14.1 µM (inactive)
- GI50 (NCI/ADR-RES): 2.82 µM (inactive)
- GI50 (TK-10): 1.09 µM (active)
- GI50 (DU-145): 10.2 µM (inactive)
- GI50 (HOP-62): 11.1 µM (inactive)
- GI50 (NCI-H23): 7.13 µM (inactive)
- GI50 (OVCAR-5): 1.66 µM (inactive)
- GI50 (SK-OV-3): 0.308 µM (active)
- GI50 (UACC-62): 2.46 µM (inactive)
- GI50 (SW-620): 2.18 µM (inactive)
- GI50 (OVCAR-3): 1.39 µM (inactive)
- GI50 (MOLT-4): 1.87 µM (inactive)
- GI50 (OVCAR-8): 4.74 µM (inactive)
- GI50 (RXF 393): 9.59 µM (inactive)
- GI50 (MDA-MB-231): 4.92 µM (inactive)
- GI50 (SK-MEL-5): 10.7 µM (inactive)
- GI50 (MDA-MB-435): 2.47 µM (inactive)
- GI50 (HOP-92): 1.03 µM (active)
- GI50 (NCI-H522): 0.643 µM (active)

SMILES: C=CCc1cc(OC)c2c(c1)C(O)CC(c1ccccc1)O2 (stereo not drawn)
- GI50 (SN12C): > 100 µM (inactive)
- GI50 (TK-10): > 100 µM (inactive)
- GI50 (HOP-62): > 100 µM (inactive)
- GI50 (NCI-H23): > 100 µM (inactive)
- GI50 (OVCAR-5): 78.5 µM (inactive)
- GI50 (SK-OV-3): > 100 µM (inactive)
- GI50 (UACC-62): > 100 µM (inactive)
- GI50 (SW-620): > 100 µM (inactive)
- GI50 (OVCAR-3): > 100 µM (inactive)
- GI50 (MOLT-4): 27.9 µM (inactive)
- GI50 (HOP-18): > 100 µM (inactive)
- GI50 (OVCAR-8): > 100 µM (inactive)
- GI50 (SK-MEL-5): > 100 µM (inactive)
- GI50 (HOP-92): > 100 µM (inactive)
- GI50 (NCI-H522): > 100 µM (inactive)
